Results: paper PMC9393165 (Scientific Reports, 2022)
Like-named read-outs stand apart in the source and are kept apart here. Marks after values point to notes of the source that are not given here.

Experiment: Tacrolimus whole blood concentration, trough and 12-h AUC after kidney transplantation (chemiluminescent microparticle immunoassay)
Assay type: in vivo, human
Details: for C0 / AUC: human, whole blood, oral
Protocol: This prospective, randomized, double-blind, placebo-controlled study was carried out in four parallel groups of KTRs. […] The randomization schedule was concealed in sequentially numbered, sealed, opaque envelopes, and kept in a locked cabinet in the central pharmacy of Siriraj Hospital. Envelopes were opened sequentially only after enrollment of each participant. The diltiazem and placebo containers, which were issued with a medication number and assigned to consecutive patients in a sequential order, were tamper-proof, equal in weight, and similar in appearance. A pharmacist not involved in the care of the study patients did the randomization, distributed the study agents, and held the trial codes, which were disclosed after the study. Physicians, nurses, other care providers, and the study patients were unaware of the group allocations.
All participants received oral, immediate-release tacrolimus (Prograf®; Astellas, Kerry, Ireland). According to Siriraj Hospital protocol, the initial dose (0.05 mg/kg every 12 h) of tacrolimus was started 2 days before KT (day − 2) and subsequently adjusted after KT based on efficacy and toxicity and to maintain morning trough concentrations of 7 to 10 ng/mL in standard risk patients and 10 to 12 ng/mL in high-risk patients during the first week after transplantation. Participants also received either mycophenolate mofetil (Cellcept®; F Hoffmann-La Roche Ltd, Basel, Switzerland or Immucept®; Intas Pharmaceuticals Ltd., Gujarat, India) or mycophenolate sodium (Myfortic®; Novartis Pharma Stein, Switzerland for Novartis AG, Basel, Switzerland) at the dosage equivalent to 2 g/day of mycophenolate mofetil. A tapered corticosteroid regimen was administered consisting of an intravenous bolus of 500 mg of methylprednisolone (Solu-medrol®; Novartis Pharma Stein, Switzerland for Novartis AG, Basel, Switzerland) on day 0, 250 mg on day 1, 125 mg on day 2 followed by 40 mg/day of prednisolone on day 4 after KT. The subsequent prednisolone doses were gradually tapered thereafter. Induction therapy with basiliximab (Simulect®; Novartis Pharma AG, Basel, Switzerland) was allowed.
All patients received a fixed dose of omeprazole 40 mg/day.
[…] Samples were collected in EDTA tubes and stored at 4 degrees Celsius until analysis. Whole blood tacrolimus concentrations were determined within the same day of blood collection by using a chemiluminescent microparticle immunoassay method with […] system® i2000 (Abbott, Abbott Diagnostic, USA). The method was linear in the concentration range up to 30 ng/mL, the limits of quantification were 0.8 ng/mL, and the coefficient of variation of within run precision and between run precision were less than 10%. Mean recovery was 100 ± 10% according to the manufacturer’s information.
For calculation of AUC/D and C0/D, values of AUC and C0 were dose-adjusted by dividing the observed values by the dose recorded on the day of blood collection. Early-morning blood pressures were measured on the same day of blood collection for pharmacokinetic analysis by a ward nurse as part of a routine examination, during rest in a seated position with a calibrated and well-maintained automatic sphygmomanometer. Delayed graft function (DGF) was defined as failure of the kidney graft to function immediately, with the need for dialysis in the first 7 days post-KT. Episode of biopsy-proven acute rejection (BPAR) during 3 months post-KT was diagnosed based on histologic findings in indication kidney graft biopsy according to Banff 2015 criteria.

[1] = day 1 post-transplantation, CYP3A5 expressers, diltiazem 30 mg every 12 h (n = 11), median (IQR)
[2] = day 1 post-transplantation, CYP3A5 expressers, placebo (n = 12), median (IQR)
[3] = day 1 post-transplantation, CYP3A5 non-expressers, diltiazem 30 mg every 12 h (n = 9), median (IQR)
[4] = day 1 post-transplantation, CYP3A5 non-expressers, placebo (n = 8), median (IQR)
[5] = day 3 post-transplantation, CYP3A5 expressers, diltiazem 30 mg every 12 h (n = 11), median (IQR)
[6] = day 3 post-transplantation, CYP3A5 expressers, placebo (n = 12), median (IQR)
[7] = day 3 post-transplantation, CYP3A5 non-expressers, diltiazem 30 mg every 12 h (n = 9), median (IQR)
[8] = day 3 post-transplantation, CYP3A5 non-expressers, placebo (n = 8), median (IQR)
[9] = day 7, all 40 KTRs, median (IQR)
[10] = day 7 post-transplantation, CYP3A5 expressers, diltiazem 30 mg every 12 h (n = 11), median (IQR)
[11] = day 7 post-transplantation, CYP3A5 expressers, placebo (n = 12), median (IQR)
[12] = day 7 post-transplantation, CYP3A5 non-expressers, diltiazem 30 mg every 12 h (n = 9), median (IQR)
[13] = day 7 post-transplantation, CYP3A5 non-expressers, placebo (n = 8), median (IQR)

Which C0/D [1] does the source give for `C=CC[C@@H]1/C=C(\C)C[C@H](C)C[C@H](OC)[C@H]2O[C@@](O)(C(=O)C(=O)N3CCCC[C@H]3C(=O)O[C@H](/C(C)=C/[C@@H]3CC[C@@H](O)[C@H](OC)C3)[C@H](C)[C@@H](O)CC1=O)[C@H](C)C[C@@H]2OC` [Tacrolimus] here?
Its C0/D is 3.3 (2.6, 4.5) ng/mL per mg.

What about the C0/Daily dose [1] of the same compound?
The C0/Daily dose was 1.6 (1.3, 2.3) ng/mL per mg/day.

And the C0/D [2]?
Its C0/D is 2.2 (1.3, 2.8) ng/mL per mg.

And the C0/Daily dose [2]?
The C0/Daily dose was 1.1 (0.6, 1.4) ng/mL per mg/day.

And the C0/D [3]?
Its C0/D is 3.8 (2.7, 7.2)^c ng/mL per mg.

What about the C0/Daily dose [3] of the same compound?
Its C0/Daily dose is 1.9 (1.3, 3.6)^c ng/mL per mg/day.

What about the C0/D [4] of the same compound?
Its C0/D is 3.8 (2.0, 5.0) ng/mL per mg.

What about the C0/Daily dose [4] of the same compound?
The C0/Daily dose was 1.9 (1.0, 2.5) ng/mL per mg/day.

And the C0/D [5]?
The C0/D was 3.7 (2.4, 4.5)^c ng/mL per mg.

And the C0/Daily dose [5]?
Its C0/Daily dose is 1.8 (1.2, 2.2)^c ng/mL per mg/day.

And the C0/D [6]?
Its C0/D is 1.8 (1.1, 2.0) ng/mL per mg.

And the C0/Daily dose [6]?
The C0/Daily dose was 0.9 (0.6, 1.0) ng/mL per mg/day.

And the C0/D [7]?
Its C0/D is 6.4 (4.1, 8.8)^c ng/mL per mg.

What about the C0/Daily dose [7] of the same compound?
The C0/Daily dose was 3.2 (2.0, 4.4)^c ng/mL per mg/day.

And the C0/D [8]?
Its C0/D is 3.4 (2.7, 5.8)^c ng/mL per mg.

And the C0/Daily dose [8]?
Its C0/Daily dose is 1.7 (1.4, 2.9)^c ng/mL per mg/day.

What about the AUC/D [9] of the same compound?
The AUC/D was 44.9 (37.1, 65.3) ng*h/mL per mg.

And the C0/D [9]?
The C0/D was 2.5 (1.8, 3.7) ng/mL per mg.

What about the “C0, range” value (day 7, all 40 KTRs, range) of the same compound?
Its value is 5.0 to 13.2 ng/mL.

What about the “AUC/D (dose-adjusted area under the 12-h curve)” value (day 7 post-transplantation, CYP3A5 expressers, diltiazem 30 mg every 12 h (EXdtz, n = 11), median (IQR)) of the same compound?
Its value is 43.6 (37.0, 50.5) ng*h/mL per mg.

And the “AUC/D (dose-adjusted area under the 12-h curve)” value (day 7 post-transplantation, CYP3A5 expressers, diltiazem 30 mg every 12 h (EXdtz, n = 11), median (IQR), listed as tacrolimus)?
The value was 43.6 ng*h/mL per mg.

What about the C0/D [10] of the same compound?
The C0/D was 1.9 (1.8, 3.2) ng/mL per mg.

And the C0/Daily dose [10]?
Its C0/Daily dose is 1.0 (0.9, 1.6) ng/mL per mg/day.

And the “AUC/D (dose-adjusted area under the 12-h curve)” value (day 7 post-transplantation, CYP3A5 expressers, placebo (EXplb, n = 12), median (IQR))?
Its value is 34.9 (31.6, 38.5) ng*h/mL per mg.

What about the “AUC/D (dose-adjusted area under the 12-h curve)” value (day 7 post-transplantation, CYP3A5 expressers, placebo (EXplb, n = 12), median (IQR), listed as tacrolimus) of the same compound?
Its value is 34.9 ng*h/mL per mg.

And the C0/D [11]?
The C0/D was 2.0 (1.4, 2.5) ng/mL per mg.

And the C0/Daily dose [11]?
Its C0/Daily dose is 1.0 (0.7, 1.2) ng/mL per mg/day.

And the “AUC/D (dose-adjusted area under the 12-h curve)” value (day 7 post-transplantation, CYP3A5 non-expressers, diltiazem 30 mg every 12 h (NEdtz, n = 9), median (IQR))?
The value was 71.1 (54.9, 100.7)^c ng*h/mL per mg.

And the “AUC/D (dose-adjusted area under the 12-h curve)” value (day 7 post-transplantation, CYP3A5 non-expressers, diltiazem 30 mg every 12 h (NEdtz, n = 9), median (IQR), listed as tacrolimus)?
Its value is 71.1 ng*h/mL per mg.

And the C0/D [12]?
The C0/D was 4.2 (2.8, 6.0)^c ng/mL per mg.

And the C0/Daily dose [12]?
Its C0/Daily dose is 2.1 (1.4, 3.0)^c ng/mL per mg/day.

What about the “AUC/D (dose-adjusted area under the 12-h curve)” value (day 7 post-transplantation, CYP3A5 non-expressers, placebo (NEplb, n = 8), median (IQR)) of the same compound?
The value was 49.4 (43.0, 62.9)^c ng*h/mL per mg.

And the “AUC/D (dose-adjusted area under the 12-h curve)” value (day 7 post-transplantation, CYP3A5 non-expressers, placebo (NEplb, n = 8), median (IQR), listed as tacrolimus)?
Its value is 49.4 ng*h/mL per mg.

What about the C0/D [13] of the same compound?
The C0/D was 2.8 (2.5, 3.4) ng/mL per mg.

And the C0/Daily dose [13]?
Its C0/Daily dose is 1.4 (1.2, 1.7) ng/mL per mg/day.

And the C0 (30 mg, day 1 post-transplantation, CYP3A5 expressers, diltiazem 30 mg every 12 h (n = 11), mean ± SD)?
The C0 was 10.9 ± 3.7 ng/mL.

What about the C0 (30 mg, day 1 post-transplantation, CYP3A5 non-expressers, diltiazem 30 mg every 12 h (n = 9), mean ± SD) of the same compound?
The C0 was 13.1 ± 7.4 ng/mL.

And the C0 (30 mg, day 3 post-transplantation, CYP3A5 expressers, diltiazem 30 mg every 12 h (n = 11), median (IQR))?
Its C0 is 9.3 ng/mL.

What about the C0 (30 mg, day 3 post-transplantation, CYP3A5 non-expressers, diltiazem 30 mg every 12 h (n = 9), median (IQR)) of the same compound?
The C0 was 11.9 ng/mL.

What about the C0 (30 mg, day 7 post-transplantation, CYP3A5 expressers, diltiazem 30 mg every 12 h (n = 11), mean ± SD) of the same compound?
Its C0 is 7.4 ± 2.1 ng/mL.

What about the AUC (30 mg, day 7 post-transplantation, CYP3A5 expressers, diltiazem 30 mg every 12 h (n = 11), mean ± SD, read-out: AUC (area under the concentration over 12-h curve)) of the same compound?
The AUC was 138 ± 29.6 ng·h/mL.

What about the C0 (30 mg, day 7 post-transplantation, CYP3A5 non-expressers, diltiazem 30 mg every 12 h (n = 9), mean ± SD) of the same compound?
The C0 was 8.4 ± 1.8 ng/mL.

What about the AUC (30 mg, day 7 post-transplantation, CYP3A5 non-expressers, diltiazem 30 mg every 12 h (n = 9), mean ± SD, read-out: AUC (area under the concentration over 12-h curve)) of the same compound?
The AUC was 148 ± 25.5 ng·h/mL.

And the C0 (day 1 post-transplantation, CYP3A5 expressers, placebo (n = 12), mean ± SD)?
Its C0 is 7 ± 3.2 ng/mL.

And the C0 (day 1 post-transplantation, CYP3A5 non-expressers, placebo (n = 8), mean ± SD)?
The C0 was 12.6 ± 7.2 ng/mL.

What about the C0 [6] of the same compound?
Its C0 is 6.2 ng/mL.

And the C0 [8]?
Its C0 is 9.4 ng/mL.

What about the C0 (day 7, all 40 KTRs, mean ± SD) of the same compound?
The C0 was 8.4 ± 2.1 ng/mL.

And the AUC (day 7, all 40 KTRs, mean ± SD, read-out: AUC)?
Its AUC is 154 ± 33.2 ng·h/mL.

What about the AUC (day 7, all 40 KTRs, range, read-out: AUC, range) of the same compound?
Its AUC is 96.9 to 233 ng·h/mL.

And the C0 (day 7 post-transplantation, CYP3A5 expressers, placebo (n = 12), mean ± SD)?
The C0 was 9.2 ± 1.6 ng/mL.

What about the AUC (day 7 post-transplantation, CYP3A5 expressers, placebo (n = 12), mean ± SD, read-out: AUC (area under the concentration over 12-h curve)) of the same compound?
The AUC was 169 ± 32.2 ng·h/mL.

What about the C0 (day 7 post-transplantation, CYP3A5 non-expressers, placebo (n = 8), mean ± SD) of the same compound?
Its C0 is 8.6 ± 2.5 ng/mL.

And the AUC (day 7 post-transplantation, CYP3A5 non-expressers, placebo (n = 8), mean ± SD, read-out: AUC (area under the concentration over 12-h curve))?
The AUC was 159 ± 40.7 ng·h/mL.
